Data as given in patent US20210024499A1, “OXIDIZED BIS(3-INDOLYL)METHANES AND USES THEREOF” (Sanford Burnam Prebys Medical Discovery Institute, priority 2018, published 2021).

Legend:
Type in all cases: cell-based
[1] = test system: HCT116 cancer cells; assay: Cell viability (MTT) assay, HCT116; settings: Homo sapiens, HCT-116; inhibiting the growth of HCT116 cancer cells, cell viability assay (Table 5)
Description: (§1) Cell viability was analyzed by using a colorimetric 3-(4,5-dimethylthiazol-[…]2-yl)-2,5-diphenyletetrazolium Bromide (MTT) assay that determines mitochondrial dehydrogenase activities in the living cells with a colorimetric method. Cells treated with test compounds were incubated with MTT and their effect on the viability of the cells was assayed by the ability of treated cells to reduce the yellow tetrazolium dye MTT to its insoluble formazan, which has a purple color. […]

[2] = test system: mTOR markers p-S6 and p-4EBP1; assay: mTOR inhibition: expression of mTOR markers; settings: MDA-MB-231 cells, 1 μM, 6 hours
[3] = test system: MDA-MB-231 cancer cells; assay: Cell viability (MTT) assay, MDA-MB-231; settings: Homo sapiens; inhibiting the growth of MDA-MB-231 cancer cells, cell viability assay (Table 6)
Description: as §1

[4] = test system: MDA-MB-231 cells; assay: PARP cleavage assay (Western blotting), MDA-MB-231; settings: 6 hours
Source text: Compound 1a had no effect under the same conditions (FIG. 1A). […] Compound 1a, 28a, 47a, 48a, 73a, 39a, 70a, 103a, 89a and 88a had no effect under the same conditions (FIG. 3B-C).

Structure (SMILES) | IC50 [1] [nM] | expression levels of mTOR markers p-S6 and p-4EBP1 [2] | IC50 [3] [nM] | PARP cleavage ([4]; 0.5 μM) | PARP cleavage ([4]; 1 μM)
CCCn1cc([C+](c2ccc(C(F)(F)F)cc2)c2c[nH]c3ccccc23)c2ccccc21.[Cl-] [Compound 48, (1-Propyl-1H-indol-3-yl)(1H-indol-3-yl)(4-(trifluoromethyl)phenyl)methylium chloride] | < 500 | reduced the expression levels | < 500 | effectively induced PARP cleavage | effectively induce PARP cleavage
FC(F)(F)c1ccc([C+](c2c[nH]c3cc(Cl)ccc23)c2c[nH]c3cc(Cl)ccc23)cc1.[Cl-] [Compound 67, Bis(6-chloro-1H-indol-3-yl)(4-(trifluoromethyl)phenyl)methylium chloride] |  | reduced the expression levels |  |  | effectively induce PARP cleavage
CCCCn1cc([C+](c2ccc(C(F)(F)F)cc2)c2c[nH]c3ccccc23)c2ccccc21.[Cl-] [Compound 49, (1-Butyl-1H-indol-3-yl)(1H-indol-3-yl)(4-(trifluoromethyl)phenyl)methylium chloride] |  | reduced the expression levels |  |  | effectively induce PARP cleavage
Fc1ccc2c([C+](c3ccc(C(F)(F)F)cc3)c3c[nH]c4cc(F)ccc34)c[nH]c2c1 [Compound 21, Bis(6-fluoro-1H-indol-3-yl)(4-(trifluoromethyl)phenyl)methylium methanesulfonate] |  | reduced the expression levels |  |  | effectively induce PARP cleavage
Cn1cc([C+](c2ccc(C(F)(F)F)cc2)c2c[nH]c3ccccc23)c2ccc(F)cc21.[Cl-] [Compound 88, (6-Fluoro-1-methyl-1H-indol-3-yl)(1H-indol-3-yl)(4-(trifluoromethyl)phenyl)-methylium chloride] | < 500 |  | < 500 | effectively induced PARP cleavage | 
Fc1cc([C+](c2c[nH]c3ccccc23)c2c[nH]c3ccccc23)ccc1C(F)(F)F.[Cl-] [Compound 103, (3-Fluoro-4-(trifluoromethyl)phenyl)di(1H-indol-3-yl)methylium chloride] | < 500 |  | < 500 | effectively induced PARP cleavage | 
Fc1cccc2c([C+](c3ccc(C(F)(F)F)cc3)c3c[nH]c4c(F)cccc34)c[nH]c12.[Cl-] [Compound 62, Bis(7-fluoro-1H-indol-3-yl)(4-(trifluoromethyl)phenyl)methylium chloride] |  | reduced the expression levels |  |  | effectively induce PARP cleavage
Cc1ccc2[nH]cc([C+](c3ccc(C(F)(F)F)cc3)c3c[nH]c4ccccc34)c2c1.[Cl-] [Compound 57, (5-Methyl-1H-indol-3-yl)(1H-indol-3-yl)(4-(trifluoromethyl)phenyl)methylium chloride] |  | reduced the expression levels |  |  | effectively induce PARP cleavage
CCn1cc([C+](c2ccc(C(F)(F)F)cc2)c2c[nH]c3ccccc23)c2ccccc21.[Cl-] [Compound 47, (1-Ethyl-1H-indol-3-yl)(1H-indol-3-yl)(4-(trifluoromethyl)phenyl)methylium chloride] | < 500 |  | < 500 | effectively induced PARP cleavage | 
Fc1cccc2[nH]cc([C+](c3ccc(C(F)(F)F)cc3)c3c[nH]c4ccccc34)c12.[Cl-] [Compound 72, (4-Fluoro-1H-indol-3-yl)(1H-indol-3-yl)(4-(trifluoromethyl)phenyl)methylium chloride] |  | reduced the expression levels |  |  | effectively induce PARP cleavage
FC(F)(F)c1ccc([C+](c2c[nH]c3cc(Cl)ccc23)c2c[nH]c3cc(Cl)ccc23)cc1 [Compound 24, Bis(6-chloro-1H-indol-3-yl)(4-(trifluoromethyl)phenyl)methylium methanesulfonate] |  | reduced the expression levels |  |  | effectively induce PARP cleavage
Cc1ccc2c([C+](c3ccc(C(F)(F)F)cc3)c3c[nH]c4cc(C)ccc34)c[nH]c2c1 [Compound 18, Bis(6-methyl-1H-indol-3-yl)(4-(trifluoromethyl)phenyl)methylium chloride] |  | reduced the expression levels |  |  | effectively induce PARP cleavage
Oc1ccc2[nH]cc([C+](c3ccc(C(F)(F)F)cc3)c3c[nH]c4ccc(O)cc34)c2c1.[Cl-] [Compound 46, Bis(5-hydroxy-1H-indol-3-yl)(4-(trifluoromethyl)phenyl)methylium chloride] |  | reduced the expression levels |  |  | effectively induce PARP cleavage
Fc1cccc2[nH]cc([C+](c3ccc(C(F)(F)F)cc3)c3c[nH]c4cccc(F)c34)c12.[Cl-] [Compound 43, Bis(4-fluoro-1H-indol-3-yl)(4-(trifluoromethyl)phenyl)methylium chloride] |  | reduced the expression levels |  |  | effectively induce PARP cleavage
Fc1ccc2c([C+](c3ccc(C(F)(F)F)cc3)c3c[nH]c4ccccc34)c[nH]c2c1.[Cl-] [Compound 70, (6-Fluoro-1H-indol-3-yl)(1H-indol-3-yl)(4-(trifluoromethyl)phenyl)methylium chloride] | < 500 |  | < 500 | effectively induced PARP cleavage | 
Cn1cc([C+](c2ccc(C(F)(F)F)cc2)c2c[nH]c3c(F)cccc23)c2ccccc21.[Cl-] [Compound 89, (7-Fluoro-1H-indol-3-yl)(1-methyl-1H-indol-3-yl)(4-(trifluoromethyl)phenyl)-methylium chloride] | < 500 |  | < 500 | effectively induced PARP cleavage | 
Fc1ccc2[nH]cc([C+](c3ccc(C(F)(F)F)cc3)c3c[nH]c4ccc(F)cc34)c2c1 [Compound 10, Bis(5-fluoro-1H-indol-3-yl)(4-(trifluoromethyl)phenyl)methylium methanesulfonate] |  | reduced the expression levels |  |  | effectively induce PARP cleavage
Cc1ccc2[nH]cc([C+](c3ccc(C(F)(F)F)cc3)c3c[nH]c4ccc(C)cc34)c2c1 [Compound 15, Bis(5-methyl-1H-indol-3-yl)(4-(trifluoromethyl)phenyl)methylium methanesulfonate] |  | reduced the expression levels |  |  | effectively induce PARP cleavage
Fc1ccc2[nH]cc([C+](c3ccc(C(F)(F)F)cc3)c3c[nH]c4ccccc34)c2c1.[Cl-] [Compound 73, (5-Fluoro-1H-indol-3-yl)(1H-indol-3-yl)(4-(trifluoromethyl)phenyl)methylium chloride] | < 500 | reduced the expression levels | < 500 | effectively induced PARP cleavage | effectively induce PARP cleavage
Cc1cccc2c([C+](c3ccc(C(F)(F)F)cc3)c3c[nH]c4ccccc34)c[nH]c12.[Cl-] [Compound 55, (7-Methyl-1H-indol-3-yl)(1H-indol-3-yl)(4-(trifluoromethyl)phenyl)methylium chloride] |  | reduced the expression levels |  |  | effectively induce PARP cleavage
FC(F)(F)Oc1ccc([C+](c2c[nH]c3ccccc23)c2c[nH]c3ccccc23)cc1.[Cl-] [Compound 39, Bis(1H-indol-3-yl)(4-(trifluoromethoxy)phenyl)methylium chloride] | 500 to 5000 | reduced the expression levels | 500 to 5000 | effectively induced PARP cleavage | effectively induce PARP cleavage
Cc1ccc2c([C+](c3ccc(C(F)(F)F)cc3)c3c[nH]c4ccccc34)c[nH]c2c1.[Cl-] [Compound 54, (6-Methyl-1H-indol-3-yl)(1H-indol-3-yl)(4-(trifluoromethyl)phenyl)methylium chloride] |  | reduced the expression levels |  |  | effectively induce PARP cleavage
Cl.Fc1ccc2c([C+](c3ccc(C(F)(F)F)cc3)c3c[nH]c4cc(F)ccc34)c[nH]c2c1 [Compound 22, Bis(6-fluoro-1H-indol-3-yl)(4-(trifluoromethyl)phenyl)methylium chloride] |  | reduced the expression levels |  |  | effectively induce PARP cleavage
FC(F)(F)c1ccc([C+](c2cn(-c3ccccc3)c3ccccc23)c2cn(-c3ccccc3)c3ccccc23)cc1.[Cl-] [Compound 74, Bis(1-phenyl-1H-indol-3-yl)(4-(trifluoromethyl)phenyl)methylium chloride] |  | reduced the expression levels |  |  | effectively induce PARP cleavage
Cn1cc([C+](c2ccc(C(F)(F)F)cc2)c2cn(C)c3ccccc23)c2ccccc21 [Compound 11, Bis(1-methyl-1H-indol-3-yl)(4-(trifluoromethyl)phenyl)methylium methanesulfonate] |  | reduced the expression levels |  |  | effectively induce PARP cleavage
